In patent publication US20250207131A1, “MODIFIED RNA AGENTS WITH REDUCED OFF-TARGET EFFECT” (Alnylam Pharmaceuticals, Inc., priority 2018, published 2025):
[UNA] = unlocked nucleic acid; d = 2'-deoxy (DNA); r = 2'-OH (RNA); f = 2'-fluoro

Legend:
[1] = UV thermal melting temperatures of mUNA 12-mer duplexes; format: physicochemical; details: for ΔTm (° C.): relative to unmodified duplex; for Tm (° C.)a / Tm (° C.)b: mUNA 12-mer duplexes, 2.0 μM each strand, pH 7.4
Source text: (§1) Values were reported as the maximum of the first derivative and are the average of at least two experiments.

[2] = UV thermal melting temperatures of TNA 12-mer duplexes; format: physicochemical; details: 1×PBS; for ΔTm (° C.): relative to unmodified duplex; for Tm (° C.): TNA 12-mer duplexes, 2.0 μM each strand, pH 7.4
Source text: Values were reported as the maximum of the first derivative and are the average of at least two experiments. […] The structures x and y are shown here:
as §1

| Substance | ΔTm (° C.) ([1]; 1x PBS) | ΔTm (° C.) ([1]; 8×PBS) | Tm (° C.)a ([1]; 1x PBS) | Tm (° C.)b ([1]; 8×PBS) | ΔTm (° C.) [2] | Tm (° C.) [2] |
| --- | --- | --- | --- | --- | --- | --- |
| AD-64366.2 (sense UACAGUCUAUGU; antisense ACAUAGACUGUA; RNA, backbone not given here) | 0.0 °C | 0.0 °C | 52.1 °C | 61.1 °C | – | – |
| AD-64366.3 (sense UACAGUCUAUGU; antisense ACAUAGACUGUA; RNA, backbone not given here) | – | – | – | – | 0 °C | 52.57 °C |
| AD-64366.4 (sense UACAGUCUAUGU; antisense ACAUAGACUGUA; RNA, backbone not given here) | – | – | – | – | 0 °C | 52.62 °C |
| AD-64367.2 (sense TACAGTCTATGT; antisense ACATAGACTGTA; DNA, backbone not given here) | – | 0.0 °C | 43.1 °C | 49.1 °C | – | – |
| AD-64367.3 (sense TACAGTCTATGT; antisense ACATAGACTGTA; DNA, backbone not given here) | – | – | – | – | 0 °C | 42.42 °C |
| AD-64367.4 (sense TACAGTCTATGT; antisense ACATAGACTGTA; DNA, backbone not given here) | – | – | – | – | 0 °C | 42.67 °C |
| AD-64980.2 (sense UACAGUCUAUGU; antisense ACAUAGACUGUA; siRNA; one 2'-fluoro U in sense strand, plain letters not given here, further chemistry not given here) | – | – | – | – | 0.52 °C | 53.14 °C |
| AD-64981.2 (sense TACAGUCTATGT; antisense ACATAGACTGTA; siRNA; sense: sugars from the 5' end d5 f1 d6, backbone not given here; antisense: DNA, backbone not given here) | – | – | – | – | −2.615 °C | 40.055 °C |
| AD-72585.2 (sense UACAGTCUAUGU; antisense ACAUAGACUGUA; siRNA; one TNA thymine in sense strand, plain letters not given here, further chemistry not given here) | – | – | – | – | −4.825 °C | 47.745 °C |
| AD-72586.2 (sense TACAGTCTATGT; antisense ACATAGACTGTA; siRNA; chemistry not fully specified) | – | – | – | – | 2.1 °C | 40.32 °C |
| AD-72587.2 (sense UACAGUCUAUGU; antisense ACAUAGACUGUA; siRNA; one TNA cytidine in sense strand, plain letters not given here, further chemistry not given here) | – | – | – | – | −5.45 °C | 47.12 °C |
| AD-511227.1 (sense UACAGUCUAUGU; antisense ACAUAGACUGUA; sense: sugars from the 5' end r5 [UNA]1 r6, backbone not given here; antisense: RNA, backbone not given here) | −16.6 °C | −17.5 °C | 35.5 °C | 43.6 °C | – | – |
| AD-511236.1 (sense TACAGUCTATGT; antisense ACATAGACTGTA; sense: chemistry not given here; antisense: DNA, backbone not given here; sense strand has one mUNA-type uridine (Uun)) | – | −25.5 °C | <30 °C | 23.6 °C | – | – |
| AD-511237.1 (sense UACAGUCUAUGU; antisense ACATAGACTGTA; sense: RNA, backbone not given here; antisense: DNA, backbone not given here) | – | 0.0 °C | 39.1 °C | 45.1 °C | – | – |
| AD-511246.1 (sense UACAGUCUAUGU; antisense ACATAGACTGTA; sense: chemistry not given here; antisense: DNA, backbone not given here; sense strand has one mUNA-type uridine (Uun)) | – | −20.5 °C | <30 °C | 24.6 °C | – | – |
| AD-511247.1 (sense TACAGTCTATGT; antisense ACAUAGACUGUA; sense: DNA, backbone not given here; antisense: RNA, backbone not given here) | – | 0.0 °C | 42.1 °C | 49.1 °C | – | – |
| AD-511256.1 (sense TACAGUCTATGT; antisense ACAUAGACUGUA; sense: chemistry not given here; antisense: RNA, backbone not given here; sense strand has one mUNA-type uridine (Uun)) | – | −20.6 °C | <30 °C | 28.6 °C | – | – |

| Substance | ΔTm (° C.) ([1]; 1x PBS) | ΔTm (° C.) ([1]; 8×PBS) | Tm (° C.)a ([1]; 1x PBS) | Tm (° C.)b ([1]; 8×PBS) | ΔTm (° C.) [2] | Tm (° C.) [2] |
| --- | --- | --- | --- | --- | --- | --- |
| AD-649408.1 (sense UACAGUCUAUGU; antisense ACAUAGACUGUA; chemistry not fully specified) | – | – | – | – | −4.5 °C | 48.07 °C |
| AD-649409.1 (sense UACAGUCUAUGU; antisense ACAUAGACUGUA; chemistry not fully specified) | – | – | – | – | −4.9 °C | 47.67 °C |
| AD-649411.1 (sense UACAGUCUAUGU; antisense ACAUAGACUGUA; chemistry not fully specified) | – | – | – | – | −11 °C | 41.57 °C |
| AD-649412.1 (sense UACAGUCUAUGU; antisense ACAUAGACUGUA; sense: RNA, backbone not given here; antisense: chemistry not given here; further chemistry not fully specified) | – | – | – | – | 0.55 °C | 53.17 °C |
| AD-649414.1 (sense UACAGUCUAUGU; antisense ACAUAGACUGUA; chemistry not fully specified) | – | – | – | – | 0.45 °C | 53.07 °C |
| AD-649415.1 (sense UACAGUCUAUGU; antisense ACAUAGACUGUA; sense: sugars from the 5' end r5 f1 r6, backbone not given here; antisense: sugars from the 5' end r6 f1 r5, backbone not given here) | – | – | – | – | 1.6 °C | 54.22 °C |
| AD-649416.1 (sense UACAGUCUAUGU; antisense ACAUAGACUGUA; sense: RNA, backbone not given here; antisense: sugars from the 5' end r5 f1 r6, backbone not given here) | – | – | – | – | 2.7 °C | 55.32 °C |
| AD-649417.1 (sense TACAGTCTATGT; antisense ACATAGACTGTA; chemistry not fully specified) | – | – | – | – | 0.65 °C | 43.07 °C |
| AD-649418.1 (sense TACAGTCTATGT; antisense ACATAGACTGTA; sense: chemistry not given here; antisense: DNA, backbone not given here; further chemistry not fully specified) | – | – | – | – | −1.78 °C | 40.64 °C |
| AD-649419.1 (sense TACAGTCTATGT; antisense ACATAGACTGTA; chemistry not fully specified) | – | – | – | – | 1.8 °C | 44.22 °C |
| AD-649420.1 (sense TACAGTCTATGT; antisense ACATAGACTGTA; chemistry not fully specified) | – | – | – | – | −2.5 °C | 39.92 °C |
| AD-649421.1 (sense TACAGTCTATGT; antisense ACATAGACTGTA; chemistry not fully specified) | – | – | – | – | −2.365 °C | 40.055 °C |
| AD-649422.1 (sense TACAGTCTATGT; antisense ACATAGACTGTA; sense: DNA, backbone not given here; antisense: sugars from the 5' end d6 f1 d5, backbone not given here) | – | – | – | – | −0.4 °C | 42.27 °C |
| AD-649423.1 (sense TACAGTCTATGT; antisense ACATAGACTGTA; sense: sugars from the 5' end d6 f1 d5, backbone not given here; antisense: DNA, backbone not given here) | – | – | – | – | −0.325 °C | 42.345 °C |
| AD-649424.1 (sense TACAGTCTATGT; antisense ACATAGACTGTA; sense: DNA, backbone not given here; antisense: sugars from the 5' end d5 f1 d6, backbone not given here) | – | – | – | – | 0.275 °C | 42.945 °C |
| AD-649425.1 (sense TACAGUCTATGT; antisense ACATAGACTGTA; sense: sugars from the 5' end d5 f1 d6, backbone not given here; antisense: sugars from the 5' end d6 f1 d5, backbone not given here) | – | – | – | – | −2.5 °C | 40.17 °C |
| AD-649426.1 (sense TACAGTCTATGT; antisense ACATAGACTGTA; sense: sugars from the 5' end d6 f1 d5, backbone not given here; antisense: sugars from the 5' end d5 f1 d6, backbone not given here) | – | – | – | – | 0.1 °C | 42.77 °C |
